Test results: publication PMC10269561, “Absence of Clinically Meaningful Drug-Drug Interactions with Rezafungin: Outcome of Investigations” (Microbiology Spectrum, 2023)
Numbered stars: 1 amine (or outer) side, 2 acyl side, 3 side chain; on linkers, the order of the positions; unused ones are H or OH. Bridge positions count the residues as written; N and C are the ends. Square brackets hold non-standard residues; d marks the D form. Peptide text beside a SMILES is read from it. * marks the point of attachment. Orn(4R-OH,5R-OCH2CH2NMe3+) = C[N+](C)(C)CCO[C@@H](N[*:3])[C@H](O)C[C@H](N[*:1])C(=O)[*:2]; pTerphenylCO(4''-OnC5H11) = CCCCCOc1ccc(-c2ccc(-c3ccc(C(=O)*)cc3)cc2)cc1; hTyr(3S-OH,4S-OH) = N[C@H](C(=O)O)[C@H](O)[C@@H](O)c1ccc(O)cc1; Pro(3S-OH,4S-Me) = C[C@H]1CN[C@H](C(=O)O)[C@H]1O; Hyp = O=C(O)[C@@H]1C[C@@H](O)CN1

Columns and labels:
[1] = Study 2 safety and tolerability (TEAEs)
Experimental: After screening, subjects were admitted to the CRU on day −17 (prior to the first rezafungin dose) and were discharged on day 22. Rezafungin was dosed via i.v. infusion over 1 h at 400 mg on day 1 and 200 mg on day 8 and day 15. The oral drugs to be tested for interactions were each administered twice on a schedule designed to allow washout between doses: once alone and once while receiving rezafungin (Fig. 4B). The total duration of treatment was approximately 84 days, which included 45 days of screening and 39 days of treatment in the CRU.
In both studies, the safety population included all subjects who received any amount of the study drug. In study 1, the rezafungin safety population included all subjects who received any amount of rezafungin. Safety assessments included vital signs (temperature, heart rate, blood pressure, and respiratory rate), safety laboratory evaluations (hematology assessment, serum chemistry panel, and urinalysis), physical examinations (complete and symptom directed), and EKGs.
(§1) Microbiology Spectrum Supplementary materials
Abbreviations: TEAE = treatment-emergent adverse event.
N = number of subjects in the safety population; n = number of subjects in a sample.
Notes: Each TEAE was counted only once for each subject within each System Organ Class and Preferred Term.

[2] = tested on: Caco-2 epithelial monolayers; assay: NC-049 membrane permeability in Caco-2 monolayers; format: in vitro ADME; conditions: Caco-2 epithelial monolayers expressing human P-gp and BCRP; both transport directions, in the absence and presence of inhibitors; study NC-049
Text: as §1
(§2) Table S 4Summary of initial in vitro assessments […]
(§3) whether rezafungin can induce CYP isoforms 1A2, 2B6, or 3A4. mRNA expression) of CYP1A2 and CYP2B6, and, in the case of […]
(§4) Abbreviations: ABC = ATP binding cassette; BCRP = breast cancer resistance protein; BSEP = bile salt export pump; CYP = cytochrome P450; MATE = multidrug and toxic compound extrusion; MDCK = Madin-Darby canine kidney; MDR = multidrug resistance protein; mRNA = messenger ribonucleic acid; OAT = organic anion transporter; OATP = organic anion transporter protein; OCT – organic cation transporter; OCTN = organic cation transporter novel; P-gp = P-glycoprotein; SLC = solute carrier.

BCRP = BCRP (Homo sapiens, UniProt Q9UNQ0); assay: NC-049 BCRP substrate potential in Caco-2 monolayers; format: in vitro ADME; conditions: with/without inhibitors
Text: as §1, §2, §3, §4

human OAT1 = human OAT1 (Homo sapiens, UniProt Q4U2R8); assay: NC-152 transporter inhibition, OAT1; format: in vitro ADME; conditions: in vitro cell test system
Text: as §1, §2, §3, §4

human OCT2 = human OCT2 (Homo sapiens, UniProt O15244); assay: NC-152 transporter inhibition, OCT2; format: in vitro ADME; conditions: in vitro cell test system
Text: as §1, §2, §3, §4

OCT1 [3] = biological target: T1, OCT1 (Homo sapiens, UniProt O15245); assay: NC-152 transporter inhibition, OCT1; format: in vitro ADME
T1 sequence (O15245 1-554): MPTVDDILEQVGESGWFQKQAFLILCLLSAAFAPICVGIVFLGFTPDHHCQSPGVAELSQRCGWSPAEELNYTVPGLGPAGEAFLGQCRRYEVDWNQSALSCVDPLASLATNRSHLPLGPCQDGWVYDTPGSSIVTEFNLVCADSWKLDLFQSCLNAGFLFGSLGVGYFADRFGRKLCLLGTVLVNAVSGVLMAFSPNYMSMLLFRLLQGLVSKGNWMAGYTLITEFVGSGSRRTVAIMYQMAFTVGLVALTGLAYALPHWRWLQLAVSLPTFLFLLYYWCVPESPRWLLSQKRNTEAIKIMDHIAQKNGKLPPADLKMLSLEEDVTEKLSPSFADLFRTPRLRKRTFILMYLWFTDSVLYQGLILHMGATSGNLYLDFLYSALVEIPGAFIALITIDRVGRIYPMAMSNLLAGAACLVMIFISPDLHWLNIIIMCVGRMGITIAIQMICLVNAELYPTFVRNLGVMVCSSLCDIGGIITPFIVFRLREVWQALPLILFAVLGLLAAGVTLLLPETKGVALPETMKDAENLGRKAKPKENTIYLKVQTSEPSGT
Text: (§5) Abbreviations: ABC = ATP binding cassette; BCRP = breast cancer resistance protein; BSEP = bile salt export pump; CYP = cytochrome P450; MATE =
(§6) multidrug and toxic compound extrusion; MDCK = Madin-Darby canine kidney; MDR = multidrug resistance protein; mRNA = messenger ribonucleic acid;
(§7) OAT = organic anion transporter; OATP = organic anion transporter protein; OCT – organic cation transporter; OCTN = organic cation transporter novel; P-gp =
(§8) P-glycoprotein; SLC = solute carrier.

human MATE1 = human MATE1 (Homo sapiens, UniProt Q96FL8); assay: NC-152 transporter inhibition, MATE1; format: in vitro ADME
Text: as §5, §6, §7, §8

human MATE2-K = human MATE2-K (Homo sapiens, UniProt Q86VL8); assay: NC-152 transporter inhibition, MATE2-K; format: in vitro ADME; conditions: in vitro cell test system
Text: as §1, §2, §3, §4

BSEP = BSEP (Homo sapiens, UniProt O95342); assay: NC-152 BSEP inhibition in membrane vesicles; format: in vitro ADME
Text: as §1, §2, §3, §4

MDR1 = MDR1 (Homo sapiens, UniProt P08183); assay: NC-160 substrate interaction, MDR1; format: in vitro ADME; conditions: efflux (ABC) transporter
Text: as §1, §2, §3, §4

MRP2 = MRP2 (Homo sapiens, UniProt Q92887); assay: NC-160 substrate interaction, MRP2; format: in vitro ADME; conditions: efflux (ABC) transporter
Text: as §1, §2, §3, §4

OCT1 [4] = biological target: T1, OCT1; assay: NC-160 substrate interaction, OCT1; format: in vitro ADME; conditions: uptake SLC transporter
Text: as §1, §2, §3, §4

OCTN1 = OCTN1 (Homo sapiens, UniProt Q9H015); assay: NC-160 substrate interaction, OCTN1; format: in vitro ADME; conditions: uptake SLC transporter
Text: as §1, §2, §3, §4

CYP2C19 [5] = biological target: T2, CYP2C19 (Homo sapiens, UniProt P33261); assay: NC-012 CYP450 inhibition screening, recombinant CYP2C19; format: in vitro ADME; conditions: 10 μM, fluorogenic substrate, recombinant human CYP
Text: as §1, §2, §3, §4

CYP3A4 [6] = biological target: T3, CYP3A4 (Homo sapiens, UniProt P08684); assay: NC-012 CYP450 inhibition screening, recombinant CYP3A4; format: in vitro ADME; conditions: benzyloxyresorufin substrate, recombinant human CYP
Text: as §1, §2, §3, §4

CYP3A4 [7] = biological target: T3, CYP3A4
Text: as §5, §6, §7, §8

CYP2C9 = CYP2C9 (Homo sapiens, UniProt P11712); assay: NC-153 time-dependent inhibition in human liver microsomes, CYP2C9; format: in vitro ADME; conditions: 0.1 to 25 μM
Text: as §1, §2, §3, §4

CYP2C19 [8] = biological target: T2, CYP2C19; assay: NC-153 time-dependent inhibition in human liver microsomes, CYP2C19; format: in vitro ADME; conditions: 0.1 to 25 μM
Text: as §1, §2, §3, §4

CYP2D6 = CYP2D6 (Homo sapiens, UniProt P10635); assay: NC-153 time-dependent inhibition in human liver microsomes, CYP2D6; format: in vitro ADME; conditions: 0.1 to 25 μM
Text: as §1, §2, §3, §4

[9] = in vitro cell test system, NC-152

T3 sequence (P08684 whole entry): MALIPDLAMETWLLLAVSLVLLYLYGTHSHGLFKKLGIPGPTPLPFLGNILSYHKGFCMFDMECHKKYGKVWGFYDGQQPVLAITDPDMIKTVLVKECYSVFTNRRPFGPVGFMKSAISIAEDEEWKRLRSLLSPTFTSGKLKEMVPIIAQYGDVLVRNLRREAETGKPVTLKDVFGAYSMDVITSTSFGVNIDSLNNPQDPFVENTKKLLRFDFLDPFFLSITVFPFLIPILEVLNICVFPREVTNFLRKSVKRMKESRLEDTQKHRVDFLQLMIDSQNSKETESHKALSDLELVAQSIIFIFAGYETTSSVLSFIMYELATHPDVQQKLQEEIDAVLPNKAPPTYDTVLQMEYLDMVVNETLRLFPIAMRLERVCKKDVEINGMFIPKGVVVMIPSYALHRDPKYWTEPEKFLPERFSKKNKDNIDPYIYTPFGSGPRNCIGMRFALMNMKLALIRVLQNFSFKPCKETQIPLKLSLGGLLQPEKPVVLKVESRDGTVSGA
T2 sequence (P33261 whole entry): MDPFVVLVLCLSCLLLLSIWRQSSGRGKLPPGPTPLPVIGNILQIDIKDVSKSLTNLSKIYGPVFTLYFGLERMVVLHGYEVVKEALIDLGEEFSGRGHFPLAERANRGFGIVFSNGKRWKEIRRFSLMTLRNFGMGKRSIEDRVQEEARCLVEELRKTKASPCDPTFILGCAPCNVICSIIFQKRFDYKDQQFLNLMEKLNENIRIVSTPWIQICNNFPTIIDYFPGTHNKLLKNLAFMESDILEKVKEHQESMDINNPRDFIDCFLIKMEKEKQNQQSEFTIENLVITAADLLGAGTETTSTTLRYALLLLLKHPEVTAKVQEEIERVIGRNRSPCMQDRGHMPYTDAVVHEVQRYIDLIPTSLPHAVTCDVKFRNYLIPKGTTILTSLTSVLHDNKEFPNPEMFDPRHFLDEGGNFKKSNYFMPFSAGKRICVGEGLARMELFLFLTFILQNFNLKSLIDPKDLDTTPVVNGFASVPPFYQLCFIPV
Chain of human MATE1 (Q96FL8 whole entry): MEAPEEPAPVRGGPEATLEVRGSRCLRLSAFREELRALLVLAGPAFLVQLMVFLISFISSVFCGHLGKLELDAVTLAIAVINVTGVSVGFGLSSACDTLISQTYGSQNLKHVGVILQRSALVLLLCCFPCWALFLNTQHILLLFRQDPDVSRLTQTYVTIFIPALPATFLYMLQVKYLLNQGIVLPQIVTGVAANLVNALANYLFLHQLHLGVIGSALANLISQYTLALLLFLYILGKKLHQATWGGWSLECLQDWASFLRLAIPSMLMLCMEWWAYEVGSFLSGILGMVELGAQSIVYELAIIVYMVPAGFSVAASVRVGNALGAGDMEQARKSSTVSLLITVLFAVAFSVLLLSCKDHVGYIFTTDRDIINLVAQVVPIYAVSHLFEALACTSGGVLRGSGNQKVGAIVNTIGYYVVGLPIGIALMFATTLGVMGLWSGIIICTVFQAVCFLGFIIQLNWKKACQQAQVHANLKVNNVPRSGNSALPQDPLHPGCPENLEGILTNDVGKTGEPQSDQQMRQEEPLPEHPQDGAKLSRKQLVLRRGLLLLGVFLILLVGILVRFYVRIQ
Chain of MDR1 (P08183 whole entry): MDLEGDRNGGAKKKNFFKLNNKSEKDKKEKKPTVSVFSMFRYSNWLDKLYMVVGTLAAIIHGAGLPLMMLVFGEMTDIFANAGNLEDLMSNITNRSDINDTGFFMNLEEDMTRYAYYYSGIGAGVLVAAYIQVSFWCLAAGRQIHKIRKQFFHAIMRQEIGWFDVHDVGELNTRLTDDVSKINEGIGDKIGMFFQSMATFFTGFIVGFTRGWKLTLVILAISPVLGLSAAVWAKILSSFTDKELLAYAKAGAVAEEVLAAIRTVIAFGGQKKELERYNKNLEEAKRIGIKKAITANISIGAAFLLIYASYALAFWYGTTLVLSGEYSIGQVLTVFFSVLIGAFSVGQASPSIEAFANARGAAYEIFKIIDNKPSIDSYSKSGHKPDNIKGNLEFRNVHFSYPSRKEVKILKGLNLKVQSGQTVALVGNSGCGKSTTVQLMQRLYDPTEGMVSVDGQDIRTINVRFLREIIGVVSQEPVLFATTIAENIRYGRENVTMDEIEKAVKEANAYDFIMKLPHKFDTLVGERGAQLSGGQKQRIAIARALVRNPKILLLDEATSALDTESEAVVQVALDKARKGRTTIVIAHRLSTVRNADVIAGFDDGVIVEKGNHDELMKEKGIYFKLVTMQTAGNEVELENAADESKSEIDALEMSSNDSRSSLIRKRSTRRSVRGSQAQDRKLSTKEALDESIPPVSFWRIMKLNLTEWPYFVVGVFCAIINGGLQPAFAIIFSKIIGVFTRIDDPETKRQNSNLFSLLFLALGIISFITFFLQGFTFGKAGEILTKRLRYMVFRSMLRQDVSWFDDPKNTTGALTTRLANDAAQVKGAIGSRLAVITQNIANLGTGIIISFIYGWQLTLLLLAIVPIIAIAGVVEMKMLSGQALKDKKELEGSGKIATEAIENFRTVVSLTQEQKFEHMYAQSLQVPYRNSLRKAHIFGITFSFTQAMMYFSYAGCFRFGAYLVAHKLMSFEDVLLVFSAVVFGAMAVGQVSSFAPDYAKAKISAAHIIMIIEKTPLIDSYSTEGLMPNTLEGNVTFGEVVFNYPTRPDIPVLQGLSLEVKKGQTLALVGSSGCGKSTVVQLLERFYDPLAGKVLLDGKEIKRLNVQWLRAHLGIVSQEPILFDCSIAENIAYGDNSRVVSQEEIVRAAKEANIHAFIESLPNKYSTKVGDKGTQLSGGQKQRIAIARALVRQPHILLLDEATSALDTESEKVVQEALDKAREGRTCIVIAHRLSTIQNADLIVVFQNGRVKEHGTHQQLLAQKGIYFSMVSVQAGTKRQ
Chain of BCRP (Q9UNQ0 whole entry): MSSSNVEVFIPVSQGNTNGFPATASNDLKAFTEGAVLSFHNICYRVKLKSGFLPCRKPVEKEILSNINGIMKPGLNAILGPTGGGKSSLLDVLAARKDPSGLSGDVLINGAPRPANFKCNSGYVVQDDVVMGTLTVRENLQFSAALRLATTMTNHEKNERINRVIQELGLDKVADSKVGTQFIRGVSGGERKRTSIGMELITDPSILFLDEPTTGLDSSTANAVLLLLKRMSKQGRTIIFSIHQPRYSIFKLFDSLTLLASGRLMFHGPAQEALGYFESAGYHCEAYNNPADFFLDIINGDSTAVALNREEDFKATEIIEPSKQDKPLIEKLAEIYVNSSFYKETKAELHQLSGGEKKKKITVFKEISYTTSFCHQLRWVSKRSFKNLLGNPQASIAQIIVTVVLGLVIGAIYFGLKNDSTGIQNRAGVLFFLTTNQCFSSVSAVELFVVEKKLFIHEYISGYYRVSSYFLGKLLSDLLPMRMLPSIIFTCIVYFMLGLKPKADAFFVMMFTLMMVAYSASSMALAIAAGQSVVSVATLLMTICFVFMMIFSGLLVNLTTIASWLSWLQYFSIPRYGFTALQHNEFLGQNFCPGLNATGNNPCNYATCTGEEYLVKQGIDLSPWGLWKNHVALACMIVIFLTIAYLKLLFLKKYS
Chain of CYP2D6 (P10635 whole entry): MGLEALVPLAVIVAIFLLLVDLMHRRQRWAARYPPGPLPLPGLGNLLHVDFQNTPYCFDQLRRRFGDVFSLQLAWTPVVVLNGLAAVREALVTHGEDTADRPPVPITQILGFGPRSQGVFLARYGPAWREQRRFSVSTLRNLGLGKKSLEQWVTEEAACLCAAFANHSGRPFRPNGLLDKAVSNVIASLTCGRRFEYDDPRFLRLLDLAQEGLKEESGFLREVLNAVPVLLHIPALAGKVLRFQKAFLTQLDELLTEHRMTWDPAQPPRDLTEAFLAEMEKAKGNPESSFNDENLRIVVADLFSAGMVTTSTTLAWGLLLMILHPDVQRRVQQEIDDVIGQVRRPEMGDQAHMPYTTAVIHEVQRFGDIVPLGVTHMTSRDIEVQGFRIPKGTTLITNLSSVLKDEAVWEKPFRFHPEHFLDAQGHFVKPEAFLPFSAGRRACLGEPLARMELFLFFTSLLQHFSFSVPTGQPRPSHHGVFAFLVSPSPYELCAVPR
Chain of human MATE2-K (Q86VL8 1-566 isoform Q86VL8-3): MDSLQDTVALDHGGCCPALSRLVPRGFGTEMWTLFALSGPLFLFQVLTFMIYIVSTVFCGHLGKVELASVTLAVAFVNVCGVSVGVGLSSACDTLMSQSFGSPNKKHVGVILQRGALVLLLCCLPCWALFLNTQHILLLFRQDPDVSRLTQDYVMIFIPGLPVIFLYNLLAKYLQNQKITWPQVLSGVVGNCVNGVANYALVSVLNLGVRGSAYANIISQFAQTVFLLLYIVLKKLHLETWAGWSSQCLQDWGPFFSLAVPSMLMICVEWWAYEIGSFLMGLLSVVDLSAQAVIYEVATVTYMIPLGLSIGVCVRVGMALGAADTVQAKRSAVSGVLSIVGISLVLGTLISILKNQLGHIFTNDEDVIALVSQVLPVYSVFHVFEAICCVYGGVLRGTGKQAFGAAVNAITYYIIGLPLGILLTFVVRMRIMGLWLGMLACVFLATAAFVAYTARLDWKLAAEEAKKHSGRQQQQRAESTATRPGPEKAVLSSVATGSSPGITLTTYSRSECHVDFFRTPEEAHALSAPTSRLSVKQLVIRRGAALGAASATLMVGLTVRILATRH
Chain of CYP2C9 (P11712 whole entry): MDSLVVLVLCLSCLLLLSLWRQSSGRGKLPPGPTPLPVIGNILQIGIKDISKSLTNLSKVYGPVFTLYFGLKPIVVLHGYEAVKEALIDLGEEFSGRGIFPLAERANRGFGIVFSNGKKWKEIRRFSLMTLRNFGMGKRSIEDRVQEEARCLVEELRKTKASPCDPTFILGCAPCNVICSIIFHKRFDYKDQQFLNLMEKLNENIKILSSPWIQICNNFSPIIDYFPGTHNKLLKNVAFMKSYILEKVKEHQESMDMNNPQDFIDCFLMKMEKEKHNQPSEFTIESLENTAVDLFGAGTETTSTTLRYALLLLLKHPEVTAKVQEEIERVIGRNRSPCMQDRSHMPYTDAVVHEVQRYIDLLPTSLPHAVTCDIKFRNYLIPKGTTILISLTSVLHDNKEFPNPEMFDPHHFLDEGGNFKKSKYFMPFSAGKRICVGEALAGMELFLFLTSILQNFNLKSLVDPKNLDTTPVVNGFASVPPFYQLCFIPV

## CCCCCOc1ccc(-c2ccc(-c3ccc(C(=O)N[C@H]4C[C@@H](O)[C@@H](OCC[N+](C)(C)C)NC(=O)[C@@H]5[C@@H](O)[C@@H](C)CN5C(=O)[C@H]([C@@H](C)O)NC(=O)[C@H]([C@H](O)[C@@H](O)c5ccc(O)cc5)NC(=O)[C@@H]5C[C@@H](O)CN5C(=O)[C@H]([C@@H](C)O)NC4=O)cc3)cc2)cc1 [Rezafungin] ({pTerphenylCO(4''-OnC5H11)}-[Orn(4R-OH,5R-OCH2CH2NMe3+)]T[Hyp][hTyr(3S-OH,4S-OH)]T[Pro(3S-OH,4S-Me)]; lactam 1-C)
[1]; Study 2
  deaths or serious adverse events: no deaths or serious adverse events
[1]; Study 2, one subject each
  severe TEAE deemed by the investigator to be related to the drug: abdominal pain
[1]; once-weekly i.v. infusions, 400-mg loading dose followed by two 200-mg maintenance doses
  tolerability: generally well tolerated
[2]
  permeability coefficient: < 0.2 ×10⁻⁶ cm/s
BCRP
  substrate of BCRP: not a substrate
Human OAT1
  inhibitor of probe substrate transport mediated via OAT1: determined to be an inhibitor
Human OCT2
  inhibitor of probe substrate transport mediated via OCT2: determined to be an inhibitor
OCT1 [3]; [9]
  inhibitor of probe substrate transport mediated via OCT1: determined to be an inhibitor
OCT1 [3]; initial in vitro studies, read-out: IC50, OCT-1 uptake transporter (moderate inhibition)
  IC50: > 6 µM
Human MATE1; [9]
  inhibitor of probe substrate transport mediated via MATE1: determined to be an inhibitor
Human MATE1; initial in vitro studies, read-out: IC50, MATE-1 uptake transporter (moderate inhibition)
  IC50: > 6 µM
Human MATE2-K
  inhibitor of probe substrate transport mediated via MATE2-K: determined to be an inhibitor
BSEP
  inhibitor of probe substrate transport mediated via BSEP: not
MDR1
  substrate of MDR1: not a substrate
MRP2
  substrate of MRP2: not a substrate
OCT1 [4]
  substrate of OCT1: not a substrate
OCTN1
  substrate of OCTN1: not a substrate
CYP2C19 [5]
  inhibition of CYP2C19: Minimal inhibition
CYP3A4 [6]
  inhibition at 10 µM: 81%
CYP3A4 [7]
  IC50: > 25 µM
CYP2C9
  time-dependent inhibitor of CYP2C9: not a time-dependent inhibitor
CYP2C19 [8]
  time-dependent inhibitor of CYP2C19: not a time-dependent inhibitor
CYP2D6
  time-dependent inhibitor of CYP2D6: not a time-dependent inhibitor
